Holding throughout (assay type): functional
Series [1] has as its target T1, Voltage-gated L-type calcium channel (Rattus norvegicus, UniProt P22002+Q02485+P27732). The series can be described thus: Percent block of total Ba2+ current on L-type [Ca2+] channels in rat RIN-m5F at 3 insulinoma cells (n = 12).
Series [2] deals with T1, Voltage-gated L-type calcium channel. Briefly: Percent increase in current at -20 mV on L-type [Ca2+] channels in rat RIN-m5F at 3 insulinoma cells (n = 5).
The target is the same in series [3]. Briefly: Percent increase in current at -20 mV on L-type [Ca2+] channels in rat RIN-m5F at 3 insulinoma cells (n = 8).

Turning to `CO/C(O)=C1\C(C)=NC(C)=C([N+](=O)[O-])C1c1cccc2nonc12` (single isomer, unassigned; (+)), the Increase in series [1] stood at 164%.

Take `CO/C(O)=C1\C(C)=NC(C)=C([N+](=O)[O-])C1c1ccc2nonc2c1` (single isomer, unassigned; (+)): in series [2], the Increase was 224%.

On to `CO/C(O)=C1\C(C)=NC(C)=C([N+](=O)[O-])C1c1ccc2nonc2c1` (racemic), for which, in series [3], the Increase amounted to 247%.
